Laboratory results taken from PubChem BioAssay AID1259407 (Chemical Carcinogenesis Research Information System (CCRIS), 2018).
Activity calls are given as the source filed them. How the calls were made is not given here.

System: CCRIS mutagenicity, Ames/micronucleus/aberration tests
Experiment: CCRIS mutagenicity studies
[1] = Test System: AMES SALMONELLA TYPHIMURIUM, Strain/Indicator: TA98, Metabolic Activation: NONE, Method: STANDARD PLATE
[2] = Test System: AMES SALMONELLA TYPHIMURIUM, Strain/Indicator: TA98, Metabolic Activation: RAT, LIVER, S-9, AROCLOR 1254, Method: STANDARD PLATE

For `O=[N+]([O-])c1ccc2c(O)cc3cccc4ccc1c2c43`, the mutagenic call (Test System: AMES SALMONELLA TYPHIMURIUM, Strain/Indicator: TA98(1,8-DNP6), Metabolic Activation: NONE, Method: STANDARD PLATE) was “active; positive”, the mutagenic call (Test System: AMES SALMONELLA TYPHIMURIUM, Strain/Indicator: TA98(1,8-DNP6), Metabolic Activation: RAT, LIVER, S-9, AROCLOR 1254, Method: STANDARD PLATE) was “active; positive” and the mutagenic call [1] was “active; positive”. The mutagenic call [2] was “active; positive”, the mutagenic call (Test System: AMES SALMONELLA TYPHIMURIUM, Strain/Indicator: YG1024, Metabolic Activation: NONE, Method: STANDARD PLATE) was “active; positive” and the mutagenic call (Test System: AMES SALMONELLA TYPHIMURIUM, Strain/Indicator: YG1024, Metabolic Activation: RAT, LIVER, S-9, AROCLOR 1254, Method: STANDARD PLATE) was “active; positive”.
In the case of `O=C1C=CC(=O)CC(=O)C1`, the mutagenic call (Test System: AMES SALMONELLA TYPHIMURIUM, Strain/Indicator: TA98, Metabolic Activation: HAMSTER, LIVER, S-9, AROCLOR 1254, Method: STANDARD PLATE) was “inactive; negative”, the mutagenic call [1] was “inactive; negative” and the mutagenic call [2] was “inactive; negative”. For the same compound, the mutagenic call (Test System: AMES SALMONELLA TYPHIMURIUM, Strain/Indicator: TA100, Metabolic Activation: HAMSTER, LIVER, S-9, AROCLOR 1254, Method: STANDARD PLATE) was “inactive; negative”, the mutagenic call (Test System: AMES SALMONELLA TYPHIMURIUM, Strain/Indicator: TA100, Metabolic Activation: NONE, Method: STANDARD PLATE) was “inactive; negative” and the mutagenic call (Test System: AMES SALMONELLA TYPHIMURIUM, Strain/Indicator: TA100, Metabolic Activation: RAT, LIVER, S-9, AROCLOR 1254, Method: STANDARD PLATE) was “inactive; negative”. For the same compound, the mutagenic call (Test System: AMES SALMONELLA TYPHIMURIUM, Strain/Indicator: TA1535, Metabolic Activation: HAMSTER, LIVER, S-9, AROCLOR 1254, Method: STANDARD PLATE) was “inactive; negative”, the mutagenic call (Test System: AMES SALMONELLA TYPHIMURIUM, Strain/Indicator: TA1535, Metabolic Activation: NONE, Method: STANDARD PLATE) was “inactive; negative” and the mutagenic call (Test System: AMES SALMONELLA TYPHIMURIUM, Strain/Indicator: TA1535, Metabolic Activation: RAT, LIVER, S-9, AROCLOR 1254, Method: STANDARD PLATE) was “inactive; negative”. The mutagenic call (Test System: AMES SALMONELLA TYPHIMURIUM, Strain/Indicator: TA1537, Metabolic Activation: HAMSTER, LIVER, S-9, AROCLOR 1254, Method: STANDARD PLATE) was “inactive; negative”, the mutagenic call (Test System: AMES SALMONELLA TYPHIMURIUM, Strain/Indicator: TA1537, Metabolic Activation: NONE, Method: STANDARD PLATE) was “inactive; negative” and the mutagenic call (Test System: AMES SALMONELLA TYPHIMURIUM, Strain/Indicator: TA1537, Metabolic Activation: RAT, LIVER, S-9, AROCLOR 1254, Method: STANDARD PLATE) was “inactive; negative”. The mutagenic call (Test System: AMES SALMONELLA TYPHIMURIUM, Strain/Indicator: TA1538, Metabolic Activation: HAMSTER, LIVER, S-9, AROCLOR 1254, Method: STANDARD PLATE) was “inactive; negative”, the mutagenic call (Test System: AMES SALMONELLA TYPHIMURIUM, Strain/Indicator: TA1538, Metabolic Activation: NONE, Method: STANDARD PLATE) was “inactive; negative” and the mutagenic call (Test System: AMES SALMONELLA TYPHIMURIUM, Strain/Indicator: TA1538, Metabolic Activation: RAT, LIVER, S-9, AROCLOR 1254, Method: STANDARD PLATE) was “inactive; negative”. The mutagenic call (Test System: MOUSE LYMPHOMA, Strain/Indicator: L5178Y (TK+/TK-), Metabolic Activation: NONE, Method: SUSPENSION/PLATE) was “active; positive. reevaluation of results: positive” and the mutagenic call (Test System: MOUSE LYMPHOMA, Strain/Indicator: L5178Y (TK+/TK-), Metabolic Activation: RAT, LIVER, S-9, AROCLOR 1254, Method: SUSPENSION/PLATE) was “inactive; negative. reevaluation of results: negative”.
